Laboratory results reported in patent US7655810B2, “Phosphine transition metal complex, method for producing the same, and antitumor agent containing the same” (Nippon Chemical Industrial Co., Ltd., priority 2005, dated 2010).

Tests used:
[1] = system: HL-60 (human acute myelocytic leukemia cells); assay: Evaluation of antitumor activity, MTT viable cell count (modified Mosmann method); assay type: cell-based; conditions: read-out: IC50 (50% inhibitory concentration from viable cell count), HL-60 cells, 24 hours culture, average of at least three measured values
Experimental: Cisplatin was also evaluated as a comparative example by the same method.
HL-60 (human acute myelocytic leukemia cells) was used as cancer cells. The cells were cultured in Rosewell Park Memorial Institute medium (RPMI 1640) supplemented with 10% fetal bovine serum, 1% antibiotic, and an antifungal agent in an atmosphere of 5% carbon dioxide in a moist incubator at 37° C.
The cells were washed with PBS. After the cell count was determined, a suspension (1×10^5 cells/mL) was prepared with the same medium. The suspension was seeded at a density of […] in a sterile 96-well microplate.
The prepared solutions were respectively added to the wells and cultured in the incubator for 24 hours.
The viable cell count was determined by a modified Mosmann method (T. Mosmann, J. Immunol. Method (1983) 65, 55-63). More specifically, a solution of a tetrazolium salt (3,[4,5-dimethylthiazole-2-yl]-2,5-diphenyltetrazolium bromide, MTT) was added to the wells. The wells were cultured for another 3 hours under the same conditions. Formazan crystals formed by the enzyme activity of mitochondria in the cells were dissolved in 0.04 mol/L HCl isopropyl alcohol solution, and the absorbance of each well was measured at 595 nm with a microplate reader (Bio-Rad 550). The background noises were canceled by subtracting the absorbance at 630 nm from the absorbance at 595 nm to obtain a viable cell count. […] For the calculation for IC50, at least three measured values obtained under the same conditions were averaged.

[2] = system: female Sprauge-Dawley SPF rats; assay: Toxicity test by single oral administration to rats; assay type: in vivo, rat
Experimental: After female Sprauge-Dawley SPF rats (CrJ: CD (SD)) were quarantined and acclimated for about a week, healthy 8-week-old rats were selected in groups of five rats. The rats was fasted overnight before administration, and single oral doses of 20, 50, 100, and 300 mg/kg of the phosphine gold complex, and 10, 20, 50, and 100 mg/kg of cisplatin dissolved in corn oil were administrated the respective rats. The rats were observed 10 and 30 minutes and 1, 2, and 4 hours after administration, and further observed daily until the 14th day.

Bis((−)-1,2-bis((2S,5S)-2,5-dimethylphosphorano)ethane)gold (I) Chloride [Example 2]
IC50 [1]: 1660 nM

Bis((+)-1,2-bis((2R,5R)-2,5-dimethylphosphorano)ethane)gold (I) Chloride [Example 1]
IC50 [1]: 2750 nM

Bis(1,2-bis((2R,5R)-2,5-(dimethylphosphorano)benzene))gold (I) Chloride [Example 4]
IC50 [1]: 542 nM
Change in general conditions, body weight and internal organs ([2]; single oral administration, over the period of the test (14 days)): no specific change in general conditions, body weight, and internal organs was observed
Survival of rats ([2]; single oral doses of 20, 50, 100 and 300 mg/kg, until the 14th day): did not die even at the 14th day

Bis(1,2-bis((2S,5S)-2,5-(dimethylphosphorano)benzene))gold (I) Chloride [Example 3]
IC50 [1]: 3550 nM
